For experiment [1], the target named is T1, 5-HT1A serotonin receptor subtype (Rattus norvegicus, UniProt P19327).
T1 construct: from tissue
T1 sequence (P19327 1-422): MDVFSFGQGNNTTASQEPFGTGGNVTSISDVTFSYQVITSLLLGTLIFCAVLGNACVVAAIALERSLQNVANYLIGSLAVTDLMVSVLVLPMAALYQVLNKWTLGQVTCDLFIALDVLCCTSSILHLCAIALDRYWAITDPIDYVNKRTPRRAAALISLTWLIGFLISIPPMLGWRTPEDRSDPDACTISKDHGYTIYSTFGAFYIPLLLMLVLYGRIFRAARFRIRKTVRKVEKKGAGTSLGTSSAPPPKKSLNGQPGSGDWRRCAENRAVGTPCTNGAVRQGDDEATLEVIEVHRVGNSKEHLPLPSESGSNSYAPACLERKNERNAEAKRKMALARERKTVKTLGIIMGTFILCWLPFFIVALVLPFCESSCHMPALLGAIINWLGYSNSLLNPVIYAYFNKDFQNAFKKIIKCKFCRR
Kind of experiment: displacement of ^3 H-8-OH DPAT from the 5-HT1A serotonin receptor subtype (Hall et al.). It counts as binding. Conditions: for inhibition at 1 µM: 1 μM test compound, read-out: % Inhibition at 1 μM (Affinity for 5-HT1A Receptor Sites); for Ki: calculated from IC50 values, read-out: Ki (Affinity for 5-HT1A Receptor Sites).
Excerpt: The serotoninergic properties of the compounds of this invention were established by the procedure of Hall et al., J. Neurochem.

In experiment [2] the target is T2, limbic D2 (dopamine) receptor (Rattus norvegicus, UniProt P61169).
T2 construct: from tissue
Nature of the experiment: inhibition of ^3 H-spiroperidol binding to limbic brain tissue (D2 receptor affinity). Conditions: 1 μM test compound, read-out: % Inhibition at 1 μM (Affinity for D2 Receptor Sites). On the procedure: The compounds of this invention are antidepressant, anxiolytic agents useful in the treatment of depression and/or anxiety as a singular, primary mental problem as well as secondary, attending problems such as sexual dysfunction. […] The D2 receptor affinity of the compounds of this invention was determined by a modification of the test procedure of Fields et al., Brain Res. 136, 578 (1977) and Yamamura et al., eds., Neurotransmitter Receptor Binding, Raven Press, N.Y. (1978) as discussed in U.S. Pat. No. 4,636,563. The percentage reduction of ^3 H-spiroperidol binding at 1 μM concentration of test compound is reported, infra.

The conditions of experiment [3]: literature; cited from earlier work.

T2 sequence (P61169 whole entry): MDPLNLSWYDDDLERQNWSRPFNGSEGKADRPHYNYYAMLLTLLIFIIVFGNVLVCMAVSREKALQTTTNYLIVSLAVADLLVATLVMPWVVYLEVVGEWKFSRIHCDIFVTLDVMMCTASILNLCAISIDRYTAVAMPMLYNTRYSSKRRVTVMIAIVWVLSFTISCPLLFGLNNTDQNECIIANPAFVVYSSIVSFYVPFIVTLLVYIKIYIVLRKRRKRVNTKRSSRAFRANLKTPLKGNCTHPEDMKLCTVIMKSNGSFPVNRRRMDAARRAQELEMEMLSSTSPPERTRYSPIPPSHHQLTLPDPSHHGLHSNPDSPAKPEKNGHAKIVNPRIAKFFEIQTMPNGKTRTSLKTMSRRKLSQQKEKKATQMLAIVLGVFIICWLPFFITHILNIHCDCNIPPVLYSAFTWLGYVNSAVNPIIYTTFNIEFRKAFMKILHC

A word on the inhibition: it is the drop in the measured response relative to a control, in per cent. The term Ki denotes a measure of affinity in units of concentration, obtained from inhibition or displacement. In the case of `O=C(NCCN1CCN(c2ncccn2)CC1)NC12CC3CC(CC(C3)C1)C2` [Example 1, N-[2-[4-(2-pyrimidyl)-1-piperazinyl]ethyl]-N'-tricyclo[3.3.1.1(3,7)]dec-1-ylurea], in experiment [1], the inhibition at 1 µM turned out to be 91% and the Ki was 52 nM. Besides, the inhibition at 1 µM in experiment [2] stood at 15%.

With `COc1ccccc1N1CCN(CCNC(=O)NC23CC4CC(CC(C4)C2)C3)CC1` [Example 2], the inhibition at 1 µM in experiment [1] was 100%.

On to `O=C(NCCN1CCN(c2cccc(Cl)c2)CC1)NC12CC3CC(CC(C3)C1)C2` [Example 3, N-[2-[4-(3-chlorophenyl)-1-piperazinyl]ethyl]-N'-tricyclo[3.3.1.1(3,7)]dec-1-ylurea], for which the inhibition at 0.1 µM in experiment [1] (100 nM test compound, read-out: % Inhibition at 100 nM (Affinity for 5-HT1A Receptor Sites)) was found to be 54%. In addition, the inhibition at 1 µM in experiment [2] came to 56%.

In the case of `O=C(NCCCN1CCN(c2ncccn2)CC1)NC12CC3CC(CC(C3)C1)C2` [Example 4, N-[3[4-(2-pyrimidyl)-1-piperazinyl]propyl]-N'-tricyclo[3.3.1.1(3,7)]dec-1-ylurea], the inhibition at 1 µM amounted to 100% in experiment [1] and 10% in experiment [2]. Also, in experiment [1], the Ki was 7 nM.

As for `COc1ccccc1N1CCN(CCCNC(=O)NC23CC4CC(CC(C4)C2)C3)CC1` [Example 5, N-[3-[4-(2-methoxyphenyl)-1-piperazinyl]propyl]-N'-tricyclo[3.3.1.1(3,7)]dec-1-ylurea], the inhibition at 1 µM in experiment [1] stood at 100%; in experiment [2], 66%.

On to `O=C(NCCCN1CCN(c2cccc(Cl)c2)CC1)NC12CC3CC(CC(C3)C1)C2` [Example 6, N-[3-[4-(3-chlorophenyl)-1-piperazinyl]propyl]-N'-tricyclo[3.3.1.1(3,7)]dec-1-ylurea], for which, in experiment [1], the inhibition at 1 µM is 95% and the Ki is 45 nM. Moreover, the inhibition at 1 µM in experiment [2] worked out at 38%.

Consider `Cc1nc2sccn2c(=O)c1CCN1CCC(=C(c2ccc(F)cc2)c2ccc(F)cc2)CC1` [Ritanserin], for which the “clinical efficacy as anxiolytic-antidepressant agents (in words)” value in experiment [3] is “demonstrate clinical efficacy as anxiolytic-antidepressant agents”.
